Test results published in the NIST ThermoML archive (doi:10.1016/j.jct.2015.08.021).

Key:
[1] = refractive index (Na D-line) (dimensionless); xn = mol fraction of the nth substance listed; details: 101.3 kPa, Liquid, Standard Abbe refractometry
[2] = relative permittivity at various frequencies (dimensionless); xn = mol fraction of the nth substance listed; details: 101.3 kPa, Liquid, Frequency=0.1 MHz, Coaxial cylinder capacitor
[3] = refractive index (Na D-line) (dimensionless); details: 101.3 kPa, Liquid, Standard Abbe refractometry
[4] = relative permittivity at various frequencies (dimensionless); details: 101.3 kPa, Liquid, Frequency=0.1 MHz, Coaxial cylinder capacitor
[5] = 298.15 K; 101.33 kPa; Liquid; Vibrating tube method

CC(C)CCO [3-methylbutan-1-ol] + C1COCCO1
Details | refractive index, 298.15 K | refractive index, 308.15 K | refractive index, 318.15 K | relative permittivity, 298.15 K | relative permittivity, 308.15 K | relative permittivity, 318.15 K
[1], x1 = 0.1 | 1.4177 | 1.4125 | 1.4069 | – | – | –
[1], x1 = 0.203 | 1.4151 | 1.4105 | 1.4054 | – | – | –
[1], x1 = 0.301 | 1.4133 | 1.4088 | 1.4039 | – | – | –
[1], x1 = 0.4 | 1.4114 | 1.4072 | 1.4026 | – | – | –
[1], x1 = 0.5 | 1.4098 | 1.4057 | 1.4012 | – | – | –
[1], x1 = 0.601 | 1.4084 | 1.4045 | 1.4001 | – | – | –
[1], x1 = 0.699 | 1.4072 | 1.4034 | 1.3992 | – | – | –
[1], x1 = 0.8 | 1.4063 | 1.4023 | 1.3984 | – | – | –
[1], x1 = 0.899 | 1.4054 | 1.4013 | 1.3978 | – | – | –
[1], x1 = 1 | 1.4048 | 1.4011 | 1.3973 | – | – | –
[2], x1 = 0.1 | – | – | – | 2.694 | 2.634 | 2.57
[2], x1 = 0.203 | – | – | – | 3.292 | 3.168 | 3.055
[2], x1 = 0.301 | – | – | – | 4.014 | 3.804 | 3.632
[2], x1 = 0.4 | – | – | – | 4.91 | 4.629 | 4.376
[2], x1 = 0.5 | – | – | – | 6.024 | 5.611 | 5.239
[2], x1 = 0.601 | – | – | – | 7.327 | 6.743 | 6.232
[2], x1 = 0.699 | – | – | – | 8.82 | 8.037 | 7.343
[2], x1 = 0.8 | – | – | – | 10.64 | 9.655 | 8.702
[2], x1 = 0.899 | – | – | – | 12.649 | 11.434 | 10.315
[2], x1 = 1 | – | – | – | 14.93 | 13.402 | 12.051

CC(C)CCO [3-methylbutan-1-ol] + OCCCCO
x2 = 0
Details | refractive index, 298.15 K | refractive index, 308.15 K | refractive index, 318.15 K | relative permittivity, 298.15 K | relative permittivity, 308.15 K | relative permittivity, 318.15 K
[1] | 1.4048 | 1.4011 | 1.3973 | – | – | –
[2] | – | – | – | 14.93 | 13.402 | 12.051

CCCCCO [pentan-1-ol]
Details | refractive index, 298.15 K | refractive index, 308.15 K | refractive index, 318.15 K | relative permittivity, 298.15 K | relative permittivity, 308.15 K | relative permittivity, 318.15 K
[3] | 1.4082 | 1.4041 | 1.4001 | – | – | –
[4] | – | – | – | 15.11 | 13.72 | 12.391

Details | mass density [kg/m3]
[5] | 811.1

CCCCCO [pentan-1-ol] + C1COCCO1
x1 = 1
Details | refractive index, 298.15 K | refractive index, 308.15 K | refractive index, 318.15 K | relative permittivity, 298.15 K | relative permittivity, 308.15 K | relative permittivity, 318.15 K
[1] | 1.4082 | 1.4041 | 1.4001 | – | – | –
[2] | – | – | – | 15.11 | 13.72 | 12.391

CCCCCO [pentan-1-ol] + OCCCCO
x2 = 0
Details | refractive index, 298.15 K | refractive index, 308.15 K | refractive index, 318.15 K | relative permittivity, 298.15 K | relative permittivity, 308.15 K | relative permittivity, 318.15 K
[1] | 1.4082 | 1.4041 | 1.4001 | – | – | –
[2] | – | – | – | 15.11 | 13.72 | 12.391
